Assay results taken from US20080009418A1, “Selective Inhibitors” (Alchemia LTD., priority 2004, published 2008).

Columns and labels:
[1] = biological target: T1, Human neurokinin (NK1) (Homo sapiens, UniProt P25103); assay: Radioligand binding, human neurokinin NK1 membranes, filtration, [125I]-Substance P; details: compound at 10 μM; for A8 radioligand binding inhibition: human neurokinin NK1 membranes
T1 construct: purchased Perkin Elmer Biosignal
Method in brief: (§1)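 Membranes from cloned human receptors were incubated with compound and radioligand for 1 hour at room temperature. Bound ligand was collected on 0.3% PEI-soaked filters, washed with cold 50 mM Tris-HCl pH 7.4, and counted by scintillation. Percent inhibition was computed against DMSO totals and reference-ligand nonspecific wells.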

[2] = biological target: T2, Human melanocortin (MC5) (Homo sapiens, UniProt P33032); assay: Radioligand binding, human melanocortin MC5 membranes, FlashPlate, [125I]-NDP-αMSH; details: compound at 10 μM; for A5 radioligand binding inhibition: human melanocortin MC5 membranes
T2 construct: purchased Perkin Elmer Biosignal
T2 sequence (P33032 whole entry): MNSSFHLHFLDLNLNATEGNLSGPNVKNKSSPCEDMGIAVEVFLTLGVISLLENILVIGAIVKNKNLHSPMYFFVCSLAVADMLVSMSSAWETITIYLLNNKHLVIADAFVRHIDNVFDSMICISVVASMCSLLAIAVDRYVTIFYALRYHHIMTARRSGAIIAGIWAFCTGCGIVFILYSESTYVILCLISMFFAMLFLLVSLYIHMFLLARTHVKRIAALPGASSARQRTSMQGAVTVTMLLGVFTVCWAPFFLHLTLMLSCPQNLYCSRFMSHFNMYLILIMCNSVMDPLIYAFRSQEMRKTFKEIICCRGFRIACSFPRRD
Method in brief: (§2)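 Cloned human receptor membranes were coated onto FlashPlate wells and incubated with radioligand and compound (added from a 0.5 mM DMSO daughter plate) for 1 hour at room temperature in the dark. Scintillation counting gave percent inhibition, with DMSO defining total and reference ligand defining non-specific binding.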

[3] = biological target: T3, Human Melanocortin (MC4) (Homo sapiens, UniProt P32245); assay: Radioligand binding, human melanocortin MC4 membranes, FlashPlate, [125I]-NDP-αMSH; details: compound at 10 μM; for A4 radioligand binding inhibition: human melanocortin MC4 membranes
T3 construct: purchased Perkin Elmer Biosignal
T3 sequence (P32245 whole entry): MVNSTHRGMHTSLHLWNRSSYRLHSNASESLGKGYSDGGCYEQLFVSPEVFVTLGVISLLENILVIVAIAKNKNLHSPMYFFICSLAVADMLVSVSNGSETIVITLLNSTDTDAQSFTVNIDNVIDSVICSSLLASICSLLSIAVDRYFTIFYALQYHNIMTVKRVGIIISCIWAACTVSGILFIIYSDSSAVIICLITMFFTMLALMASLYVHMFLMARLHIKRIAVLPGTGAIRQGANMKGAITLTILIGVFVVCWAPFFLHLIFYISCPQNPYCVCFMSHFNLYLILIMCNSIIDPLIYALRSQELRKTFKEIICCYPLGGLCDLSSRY
Method in brief: as §2

[4] = biological target: T4, Mouse urotensin (mUR2) (Mus musculus, UniProt Q8VIH9); assay: Radioligand binding, mouse urotensin mUR2 membranes, FlashPlate, [125I]-Urotensin II; details: compound at 10 μM; for A11 radioligand binding inhibition: mouse urotensin mUR2 membranes
T4 construct: purchased Perkin Elmer Biosignal
T4 sequence (Q8VIH9 1-385): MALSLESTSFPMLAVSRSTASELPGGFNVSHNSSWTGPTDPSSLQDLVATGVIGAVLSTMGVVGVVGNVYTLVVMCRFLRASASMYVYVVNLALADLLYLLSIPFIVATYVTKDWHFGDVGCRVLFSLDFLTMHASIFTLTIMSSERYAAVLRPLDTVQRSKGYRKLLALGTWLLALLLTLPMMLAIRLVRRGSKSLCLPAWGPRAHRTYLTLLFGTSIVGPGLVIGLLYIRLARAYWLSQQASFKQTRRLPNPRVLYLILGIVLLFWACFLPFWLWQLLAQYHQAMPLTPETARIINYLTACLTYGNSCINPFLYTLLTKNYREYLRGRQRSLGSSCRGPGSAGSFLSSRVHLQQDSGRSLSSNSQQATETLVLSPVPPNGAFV
Method in brief: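 Cloned mouse urotensin (mUR2) receptor membranes from Perkin Elmer Biosignal were immobilized in FlashPlate microplates using a proprietary coating. Each well got 19.5 μl buffer, then 0.5 μl of DMSO, reference ligand, or compound. Adding 5 μl of [125I]-Urotensin II, diluted to 5× final concentration in binding buffer, started binding. Plates were sealed with TopSeal-A and incubated 1 hour at room temperature in the dark. Wells were counted for 30 seconds each on a TopCount after a 60-second delay, and percentage inhibition was calculated.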

[5] = biological target: T5, Human μ-opioid (MOP) (Homo sapiens, UniProt P35372); assay: Radioligand binding, human μ-opioid (MOP) membranes, FlashPlate, [3H]-Naloxone; details: compound at 10 μM; for A7 radioligand binding inhibition: human μ-opioid (MOP) membranes
T5 construct: purchased Perkin Elmer Biosignal
T5 sequence (P35372 whole entry): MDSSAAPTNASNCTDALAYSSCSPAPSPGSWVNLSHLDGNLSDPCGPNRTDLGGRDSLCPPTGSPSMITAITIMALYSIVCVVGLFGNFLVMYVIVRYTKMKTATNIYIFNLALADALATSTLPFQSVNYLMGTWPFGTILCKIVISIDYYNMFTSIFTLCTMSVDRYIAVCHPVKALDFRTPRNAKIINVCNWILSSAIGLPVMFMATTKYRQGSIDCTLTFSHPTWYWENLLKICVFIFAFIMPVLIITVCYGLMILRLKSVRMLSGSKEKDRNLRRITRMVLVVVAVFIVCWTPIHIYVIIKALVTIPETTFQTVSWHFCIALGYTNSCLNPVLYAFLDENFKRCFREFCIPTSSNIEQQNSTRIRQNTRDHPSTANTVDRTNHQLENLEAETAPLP
Method in brief: as §2

[6] = biological target: T6, Human melanin-concentrating hormone (MCH1) (Homo sapiens, UniProt Q99705); assay: Radioligand binding, human melanin-concentrating hormone MCH1 membranes, FlashPlate, [125I]-S36057; details: compound at 10 μM; for A6 radioligand binding inhibition: human MCH1 membranes
T6 construct: purchased Perkin Elmer Biosignal
T6 sequence (Q99705 whole entry): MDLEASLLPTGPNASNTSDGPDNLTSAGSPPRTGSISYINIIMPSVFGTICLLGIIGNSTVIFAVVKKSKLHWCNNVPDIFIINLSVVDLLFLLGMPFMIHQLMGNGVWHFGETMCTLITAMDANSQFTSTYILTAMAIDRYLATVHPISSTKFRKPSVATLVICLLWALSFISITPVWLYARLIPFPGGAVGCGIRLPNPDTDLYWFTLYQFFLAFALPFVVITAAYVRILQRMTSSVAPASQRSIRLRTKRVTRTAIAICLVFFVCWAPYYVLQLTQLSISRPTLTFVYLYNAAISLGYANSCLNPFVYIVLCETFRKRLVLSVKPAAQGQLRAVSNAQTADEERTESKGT
Method in brief: as §2

[7] = biological target: T7, Human κ-Opioid (KOP) (Homo sapiens, UniProt P41145); assay: Radioligand binding, human κ-opioid (KOP) membranes, filtration, [3H]-Diprenorphine; details: compound at 10 μM; for A2 radioligand binding inhibition: human κ-opioid (KOP) membranes
T7 construct: purchased Perkin Elmer Biosignal
T7 sequence (P41145 whole entry): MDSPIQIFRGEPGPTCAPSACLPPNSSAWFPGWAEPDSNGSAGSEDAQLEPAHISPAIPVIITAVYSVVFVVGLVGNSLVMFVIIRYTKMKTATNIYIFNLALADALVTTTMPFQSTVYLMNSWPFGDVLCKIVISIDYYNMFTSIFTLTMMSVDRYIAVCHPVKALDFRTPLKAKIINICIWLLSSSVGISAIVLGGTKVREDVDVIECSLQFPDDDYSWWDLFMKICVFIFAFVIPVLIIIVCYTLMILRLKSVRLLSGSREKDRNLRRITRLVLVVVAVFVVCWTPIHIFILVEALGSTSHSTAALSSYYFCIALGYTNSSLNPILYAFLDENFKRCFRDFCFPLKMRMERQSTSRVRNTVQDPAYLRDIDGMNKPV
Method in brief: as §1

[8] = biological target: T8, Human opioid (ORL1) (Homo sapiens, UniProt P41146); assay: Radioligand binding, human opioid ORL1 membranes, FlashPlate, [125I]-Nociceptin; details: compound at 10 μM
T8 construct: purchased Perkin Elmer Biosignal
T8 sequence (P41146 whole entry): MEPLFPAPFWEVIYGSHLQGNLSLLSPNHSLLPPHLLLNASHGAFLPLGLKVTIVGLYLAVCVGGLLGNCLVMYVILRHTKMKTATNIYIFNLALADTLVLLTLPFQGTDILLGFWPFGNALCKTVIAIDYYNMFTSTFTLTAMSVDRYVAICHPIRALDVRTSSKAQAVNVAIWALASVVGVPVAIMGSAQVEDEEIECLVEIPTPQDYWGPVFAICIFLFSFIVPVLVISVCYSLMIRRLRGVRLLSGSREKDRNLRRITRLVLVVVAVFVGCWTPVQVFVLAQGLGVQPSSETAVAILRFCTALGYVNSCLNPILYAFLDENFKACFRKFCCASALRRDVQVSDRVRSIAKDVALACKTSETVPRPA
Method in brief: as §2

[9] = biological target: T9, Human Melanocortin (MC3) (Homo sapiens, UniProt P41968); assay: Radioligand binding, human melanocortin MC3 membranes, FlashPlate, [125I]-NDP-αMSH; details: compound at 10 μM; for A3 radioligand binding inhibition: human melanocortin MC3 membranes
T9 construct: purchased Perkin Elmer Biosignal
T9 sequence (P41968 whole entry): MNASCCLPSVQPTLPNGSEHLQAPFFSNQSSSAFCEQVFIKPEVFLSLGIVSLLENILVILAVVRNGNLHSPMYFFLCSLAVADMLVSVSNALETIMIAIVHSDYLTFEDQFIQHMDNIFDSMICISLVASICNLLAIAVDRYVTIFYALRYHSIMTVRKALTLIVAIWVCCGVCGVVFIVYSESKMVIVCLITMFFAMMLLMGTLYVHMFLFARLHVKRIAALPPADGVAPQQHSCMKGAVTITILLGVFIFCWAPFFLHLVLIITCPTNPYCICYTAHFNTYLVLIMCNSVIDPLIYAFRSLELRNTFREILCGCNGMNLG
Method in brief: as §2

[10] = biological target: T10, Human δ-opioid (DOP) (Homo sapiens, UniProt P41143); assay: Radioligand binding, human δ-opioid (DOP) membranes, FlashPlate, [3H]-Bremazocine; details: compound at 10 μM; for A1 radioligand binding inhibition: human δ-opioid (DOP) membranes
T10 construct: purchased Perkin Elmer Biosignal
T10 sequence (P41143 whole entry): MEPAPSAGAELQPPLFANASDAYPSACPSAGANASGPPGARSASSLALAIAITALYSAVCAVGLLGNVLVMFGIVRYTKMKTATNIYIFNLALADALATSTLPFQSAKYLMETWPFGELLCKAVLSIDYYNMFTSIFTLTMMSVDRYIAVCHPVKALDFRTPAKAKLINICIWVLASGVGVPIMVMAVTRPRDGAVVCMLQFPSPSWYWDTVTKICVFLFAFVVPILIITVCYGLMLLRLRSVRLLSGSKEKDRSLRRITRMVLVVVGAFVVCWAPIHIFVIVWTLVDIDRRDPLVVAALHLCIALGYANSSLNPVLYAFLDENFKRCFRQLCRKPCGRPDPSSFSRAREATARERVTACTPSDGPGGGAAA
Method in brief: as §2

[11] = biological target: T11, Human neuropeptide Y (NPY-Y1) (Homo sapiens, UniProt P25929); assay: Radioligand binding, human neuropeptide Y NPY-Y1 membranes, FlashPlate, [125I]-PYY; details: compound at 10 μM
T11 construct: purchased Perkin Elmer Biosignal
T11 sequence (P25929 1-384): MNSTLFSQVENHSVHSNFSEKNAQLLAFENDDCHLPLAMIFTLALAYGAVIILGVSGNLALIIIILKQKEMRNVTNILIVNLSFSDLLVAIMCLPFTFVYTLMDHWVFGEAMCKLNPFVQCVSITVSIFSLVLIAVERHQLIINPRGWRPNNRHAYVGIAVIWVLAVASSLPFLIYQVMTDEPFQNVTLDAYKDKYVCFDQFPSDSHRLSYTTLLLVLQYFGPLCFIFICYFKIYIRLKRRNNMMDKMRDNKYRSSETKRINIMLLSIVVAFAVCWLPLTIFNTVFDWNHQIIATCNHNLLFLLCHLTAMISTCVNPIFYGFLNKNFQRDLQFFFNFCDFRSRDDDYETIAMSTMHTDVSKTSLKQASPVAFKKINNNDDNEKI
Method in brief: as §2

T1 sequence (P25103 whole entry): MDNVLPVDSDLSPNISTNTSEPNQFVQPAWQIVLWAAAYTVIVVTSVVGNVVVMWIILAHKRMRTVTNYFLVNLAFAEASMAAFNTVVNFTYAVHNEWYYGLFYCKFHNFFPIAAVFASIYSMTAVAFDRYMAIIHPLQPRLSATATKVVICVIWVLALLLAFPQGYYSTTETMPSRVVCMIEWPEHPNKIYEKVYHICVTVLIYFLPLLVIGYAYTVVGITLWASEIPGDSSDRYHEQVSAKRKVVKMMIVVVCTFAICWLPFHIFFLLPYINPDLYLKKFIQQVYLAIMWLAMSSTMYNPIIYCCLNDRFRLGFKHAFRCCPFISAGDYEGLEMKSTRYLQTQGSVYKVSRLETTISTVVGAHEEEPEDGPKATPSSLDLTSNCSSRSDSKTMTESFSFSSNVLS

## N=C(N)NCCC(=O)NC1C(OCc2ccc(-c3ccccc3)cc2)OC(COCc2ccccc2)C(O)C1OCc1ccc(Cl)cc1 (stereo not shown) [compound 409]
[1]; [125I]-Substance P, human NK1 membranes
  A8: inhibition of radioligand binding: + (“+” indicates greater than 50% inhibition at 10 μM)
[2]; [125I]-NDP-αMSH, human MC5 membranes
  A5: inhibition of radioligand binding: + (“+” indicates greater than 50% inhibition at 10 μM)
[3]; [125I]-NDP-αMSH, human MC4 membranes
  A4: inhibition of radioligand binding: + (“+” indicates greater than 50% inhibition at 10 μM)
[4]; [125I]-Urotensin II, mouse mUR2 membranes
  A11: inhibition of radioligand binding: − (“−” indicates less than 50% inhibition at 10 μM)
[5]; [3H]-Naloxone, human MOP membranes
  A7: inhibition of radioligand binding: − (“−” indicates less than 50% inhibition at 10 μM)
[6]; [125I]-S36057, human MCH1 membranes
  A6: inhibition of radioligand binding: + (“+” indicates greater than 50% inhibition at 10 μM)
[7]; [3H]-Diprenorphine, human KOP membranes
  A2: inhibition of radioligand binding: − (“−” indicates less than 50% inhibition at 10 μM)
[8]; [125I]-Nociceptin, human ORL1 membranes
  A10: inhibition of radioligand binding: + (“+” indicates greater than 50% inhibition at 10 μM)
[9]; [125I]-NDP-αMSH, human MC3 membranes
  A3: inhibition of radioligand binding: + (“+” indicates greater than 50% inhibition at 10 μM)
[10]; [3H]-Bremazocine, human DOP membranes
  A1: inhibition of radioligand binding: − (“−” indicates less than 50% inhibition at 10 μM)
[11]; [125I]-PYY, human NPY-Y1 membranes
  A9: inhibition of radioligand binding: − (“−” indicates less than 50% inhibition at 10 μM)

## COCC1OC(OCc2ccc(Cl)cc2)C(NC(=O)CNC(=N)N)C(OCc2ccc(Cl)cc2)C1O (stereo not shown) [compound 200]
[1]; [125I]-Substance P, filtration
  A8: inhibition of radioligand binding: + (“+” indicates greater than 50% inhibition at 10 μM)
[2]; [125I]-NDP-αMSH, FlashPlate
  A5: inhibition of radioligand binding: + (“+” indicates greater than 50% inhibition at 10 μM)
[3]; [125I]-NDP-αMSH, FlashPlate
  A4: inhibition of radioligand binding: + (“+” indicates greater than 50% inhibition at 10 μM)
[4]; [125I]-Urotensin II, FlashPlate
  A11: inhibition of radioligand binding: − (“−” indicates less than 50% inhibition at 10 μM)
[5]; [3H]-Naloxone, FlashPlate
  A7: inhibition of radioligand binding: − (“−” indicates less than 50% inhibition at 10 μM)
[6]; [125I]-S36057, FlashPlate
  A6: inhibition of radioligand binding: − (“−” indicates less than 50% inhibition at 10 μM)
[7]; [3H]-Diprenorphine, filtration
  A2: inhibition of radioligand binding: − (“−” indicates less than 50% inhibition at 10 μM)
[8]; [125I]-Nociceptin, FlashPlate
  A10: inhibition of radioligand binding: − (“−” indicates less than 50% inhibition at 10 μM)
[9]; [125I]-NDP-αMSH, FlashPlate
  A3: inhibition of radioligand binding: + (“+” indicates greater than 50% inhibition at 10 μM)
[10]; [3H]-Bremazocine, FlashPlate
  A1: inhibition of radioligand binding: − (“−” indicates less than 50% inhibition at 10 μM)
[11]; [125I]-PYY, FlashPlate
  A9: inhibition of radioligand binding: − (“−” indicates less than 50% inhibition at 10 μM)

## COC[C@H]1OC(OCCc2ccccc2)[C@H](NC(=O)CCNC(=N)N)[C@@H](OCc2ccc(-c3ccccc3)cc2)[C@@H]1O (stereo partly shown) [compound 41]
[1]
  A8 radioligand binding inhibition: + (“+” indicates greater than 50% inhibition at 10 μM)
[2]
  A5 radioligand binding inhibition: + (“+” indicates greater than 50% inhibition at 10 μM)
[3]
  A4 radioligand binding inhibition: + (“+” indicates greater than 50% inhibition at 10 μM)
[4]
  A11 radioligand binding inhibition: − (“−” indicates less than 50% inhibition at 10 μM)
[5]
  A7 radioligand binding inhibition: − (“−” indicates less than 50% inhibition at 10 μM)
[6]
  A6 radioligand binding inhibition: + (“+” indicates greater than 50% inhibition at 10 μM)
[7]
  A2 radioligand binding inhibition: − (“−” indicates less than 50% inhibition at 10 μM)
[8]; human ORL1 membranes
  A10 radioligand binding inhibition: − (“−” indicates less than 50% inhibition at 10 μM)
[9]
  A3 radioligand binding inhibition: − (“−” indicates less than 50% inhibition at 10 μM)
[10]
  A1 radioligand binding inhibition: − (“−” indicates less than 50% inhibition at 10 μM)
[11]; human NPY-Y1 membranes
  A9 radioligand binding inhibition: − (“−” indicates less than 50% inhibition at 10 μM)

## CO[C@H]1[C@H](O)[C@@H](COCc2ccc(-c3ccccc3)cc2)OC(OCc2ccc(-c3ccccc3)cc2)[C@@H]1NC(=O)CCCNC(=N)N (stereo partly shown) [compound 54]
[1]
  A8 radioligand binding inhibition: + (“+” indicates greater than 50% inhibition at 10 μM)
[2]
  A5 radioligand binding inhibition: + (“+” indicates greater than 50% inhibition at 10 μM)
[3]
  A4 radioligand binding inhibition: + (“+” indicates greater than 50% inhibition at 10 μM)
[4]
  A11 radioligand binding inhibition: − (“−” indicates less than 50% inhibition at 10 μM)
[5]
  A7 radioligand binding inhibition: + (“+” indicates greater than 50% inhibition at 10 μM)
[6]
  A6 radioligand binding inhibition: + (“+” indicates greater than 50% inhibition at 10 μM)
[7]
  A2 radioligand binding inhibition: − (“−” indicates less than 50% inhibition at 10 μM)
[8]; human ORL1 membranes
  A10 radioligand binding inhibition: + (“+” indicates greater than 50% inhibition at 10 μM)
[9]
  A3 radioligand binding inhibition: + (“+” indicates greater than 50% inhibition at 10 μM)
[10]
  A1 radioligand binding inhibition: − (“−” indicates less than 50% inhibition at 10 μM)
[11]; human NPY-Y1 membranes
  A9 radioligand binding inhibition: − (“−” indicates less than 50% inhibition at 10 μM)

## NCCCC(=O)NC1C(OCc2ccc(Cl)cc2)OC(COCc2ccc(Cl)cc2)C(O)C1OCc1ccccc1 (single isomer, unassigned) [compound 506]
[1]; [125I]-Substance P
  A8: inhibition of radioligand binding, human neurokinin (NK1): + (“+” indicates greater than 50% inhibition at 10 μM)
[2]; [125I]-NDP-αMSH
  A5: inhibition of radioligand binding, human melanocortin (MC5): + (“+” indicates greater than 50% inhibition at 10 μM)
[3]; [125I]-NDP-αMSH
  A4: inhibition of radioligand binding, human melanocortin (MC4): − (“−” indicates less than 50% inhibition at 10 μM)
[4]; [125I]-Urotensin II
  A11: inhibition of radioligand binding, mouse urotensin (mUR2): − (“−” indicates less than 50% inhibition at 10 μM)
[5]; [3H]-Naloxone, 10 µM
  A7: inhibition of radioligand binding, human μ-opioid (MOP): − (“−” indicates less than 50% inhibition at 10 μM)
[6]; [125I]-S36057
  A6: inhibition of radioligand binding, human melanin-concentrating hormone (MCH1): − (“−” indicates less than 50% inhibition at 10 μM)
[7]; [3H]-Diprenorphine
  A2: inhibition of radioligand binding, human κ-opioid (KOP): − (“−” indicates less than 50% inhibition at 10 μM)
[8]; [125I]-Nociceptin, 10 µM
  A10: inhibition of radioligand binding, human opioid (ORL1): + (“+” indicates greater than 50% inhibition at 10 μM)
[9]; [125I]-NDP-αMSH
  A3: inhibition of radioligand binding, human melanocortin (MC3): − (“−” indicates less than 50% inhibition at 10 μM)
[10]; [3H]-Bremazocine
  A1: inhibition of radioligand binding, human δ-opioid (DOP): − (“−” indicates less than 50% inhibition at 10 μM)
[11]; [125I]-PYY
  A9: inhibition of radioligand binding, human neuropeptide Y (NPY-Y1): − (“−” indicates less than 50% inhibition at 10 μM)
